From US20260258025A1, “INHIBITORS OF TDP-43 AND TAU AGGREGATION” (Aquinnah Pharmaceuticals, inc., priority 2023, published 2026) come the findings set out here.

A word on the IC50: it is the concentration needed to halve the response being measured.

In this test the test system is TDP-43 aggregation. As to the kind of experiment: TDP-43 aggregation assay in SY5Y TDP-43WT cells (high content imaging). Format: cell-based. Conditions: Homo sapiens, tetracycline induction 24 hrs, 1 hour compound pre-treatment, sodium arsenite 23 hrs, 8-point dose curve, percentage of cells with TDP-43 aggregates, read-out: IC50, Inhibition of TDP-43 Aggregation. In a few lines: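 Tetracycline-inducible eGFP-tagged wild-type human TDP-43 in SH-SY5Y cells, induced 24 h ([…]), compound pre-treated 1 h, then sodium arsenite […] for 23 h. Fixed cells imaged; percentage of DAPI-counted cells with aggregates gives IC50 from 8-point curves.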

Molecules are shown by their SMILES.

In the case of `Cc1cc(-c2ccc(C3CCN(C(C)C)CC3)cc2)sc1C(=O)N1CC[C@H](N)C1` [Compound 183, (S)-(3-aminopyrrolidin-1-yl)(5-(4-(1-isopropylpiperidin-4-yl)phenyl)-3-methylthiophen-2-yl)methanone], the IC50 was less than 0.5 µM.
